Series [1] is described as follows: Metabolic stability in human liver microsomes assessed as compound remaining at 1 uM after 30 mins LC-MS analysis. The following applies: liver microsomes, read-out: Stability. It is filed as ADME, Microsome.
The nature of series [2]: Metabolic stability in mouse liver microsomes assessed as compound remaining at 1 uM after 30 mins LC-MS analysis. The following applies: liver microsomes, read-out: Stability. The series is classed as ADME, Microsome.
The target of series [3] is Nicotinamide phosphoribosyltransferase (Homo sapiens, UniProt P43490).
Chain of Nicotinamide phosphoribosyltransferase (P43490 whole entry): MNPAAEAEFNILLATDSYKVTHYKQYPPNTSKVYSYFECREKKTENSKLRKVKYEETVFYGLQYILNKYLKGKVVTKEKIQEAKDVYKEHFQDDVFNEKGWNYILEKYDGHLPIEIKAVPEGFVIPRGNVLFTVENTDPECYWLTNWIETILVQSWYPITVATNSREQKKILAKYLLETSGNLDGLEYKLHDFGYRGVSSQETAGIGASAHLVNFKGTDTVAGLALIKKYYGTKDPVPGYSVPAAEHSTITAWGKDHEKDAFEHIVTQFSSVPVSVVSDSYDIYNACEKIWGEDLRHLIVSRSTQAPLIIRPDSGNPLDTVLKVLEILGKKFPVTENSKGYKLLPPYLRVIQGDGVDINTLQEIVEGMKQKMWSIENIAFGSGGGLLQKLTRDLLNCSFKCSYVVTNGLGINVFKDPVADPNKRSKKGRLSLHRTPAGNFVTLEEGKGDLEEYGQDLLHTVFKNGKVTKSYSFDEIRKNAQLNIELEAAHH
The subject of series [4] is A2780. As to the kind of experiment: cells. The following applies: Homo sapiens, A2780, 72 h.

Some results are limits rather than exact numbers.

Consider `O=C(NCc1ccc(S(=O)(=O)c2ccccc2)cc1)c1cc2ccncc2o1`, for which the values for the remaining at 0.5 h, 1 µM in series [1] and in series [2] were 86% and 30%, respectively.

Regarding `O=C(NCc1ccc(S(=O)(=O)c2ccccc2)cc1)c1ccc2nncn2c1`, the results for the remaining at 0.5 h, 1 µM in series [1] and in series [2] were 96% and 47%, respectively. The IC50 (in general, the concentration that inhibits the measured activity by half) is 370 nM in series [3] and greater than 10000 nM in series [4].

For the molecule `O=C(NCc1ccc(S(=O)(=O)c2ccc(F)cc2)cc1)c1cc2cnccc2[nH]1`, the remaining at 0.5 h, 1 µM in series [1] was determined as 91%; in series [2], 72%. Further, the IC50 in series [3] stood at 17 nM; in series [4] it was 16 nM.

With `O=C(NCc1ccc(S(=O)(=O)N2CCCCC2)cc1)c1cnc2nccn2c1`, the values for the remaining at 0.5 h, 1 µM in series [1] and in series [2] were 64% and 0.28%, respectively. Moreover, the IC50 is 3 nM in series [3] and 130 nM in series [4].

Take `O=C(NCc1ccc(S(=O)(=O)c2ccccc2)cc1)c1cc2cnccc2[nH]1`: the values for the remaining at 0.5 h, 1 µM in series [1] and in series [2] were 75% and 54%, respectively.

In the case of `O=C(NCc1ccc(S(=O)(=O)c2ccccc2)cc1)c1cc(-c2cccnc2)[nH]n1`, the remaining at 0.5 h, 1 µM in series [1] stood at 67%; in series [2], 42%. The IC50 was 43 nM in series [3] and greater than 10000 nM in series [4].

On to `O=C(NCc1ccc(S(=O)(=O)N2CCCCC2)cc1)c1ccn2ccnc2c1`, for which the IC50 in series [3] is 1800 nM; in series [4] it was greater than 10000 nM.

With `O=C(NCc1ccc(S(=O)(=O)c2cc(F)cc(F)c2)cc1)c1cc2ccncc2o1`, the values for the remaining at 0.5 h, 1 µM in series [1] and in series [2] were 77% and 12%, respectively.

As for `O=C(NCc1ccc(S(=O)(=O)c2ccccc2C(F)(F)F)cc1)c1cc2cnccc2[nH]1`, the remaining at 0.5 h, 1 µM in series [1] was determined as 52%; in series [2], 41%. The half-inhibitory concentration (IC50) was found to be 24 nM in series [3] and 25 nM in series [4].

On to `O=C(NCc1ccc(S(=O)(=O)c2ccccc2)cc1)c1cn2ccnc2cn1`, for which the remaining at 0.5 h, 1 µM in series [1] came out at 87%; in series [2], 13%. Moreover, the results for the IC50 in series [3] and in series [4] were 150 nM and greater than 10000 nM, respectively.

Turning to `O=C(NCc1ccc(S(=O)(=O)N2CCCCC2)cc1)c1cc2cnccc2o1`, the remaining at 0.5 h, 1 µM was 46% in series [1] and 4.6% in series [2]. In addition, the IC50 in series [3] was 140 nM; in series [4], 1500 nM.

As for `O=C(NCc1ccc(S(=O)(=O)c2ccccc2)cc1)c1cc(-c2cccnc2)no1`, the remaining at 0.5 h, 1 µM in series [1] stood at 69%; in series [2] it was 66%. Besides, the IC50 in series [3] is 41 nM; in series [4], greater than 10000 nM.

Consider `O=C(NCc1ccc(S(=O)(=O)c2cccc(C(F)(F)F)c2)cc1)c1ccc2nccn2c1`, for which the remaining at 0.5 h, 1 µM is 26% in series [1] and 17% in series [2]. In addition, the results for the IC50 in series [3] and in series [4] were 8 nM and 2 nM, respectively.

As for `O=C(NCc1ccc(S(=O)(=O)c2ccccc2)cc1)c1ccc2nccn2c1`, the remaining at 0.5 h, 1 µM in series [1] amounted to 77%; in series [2], 18%. The IC50 in series [3] was determined as 18 nM; in series [4] it was 13 nM.

As to `O=C(NCc1ccc(S(=O)(=O)c2ccccc2)cc1)c1ccc2ccncc2c1`, the results for the remaining at 0.5 h, 1 µM in series [1] and in series [2] were 46% and 3.3%, respectively. In addition, the IC50 in series [3] was 610 nM; in series [4], greater than 10000 nM.

Take `O=C(NCc1ccc(S(=O)(=O)c2cccnc2)cc1)c1cc2cnccc2[nH]1`: the remaining at 0.5 h, 1 µM turned out to be 75% in series [1] and 20% in series [2]. The molecule further came in with an IC50 in series [4] of 48 nM.

For `O=C(NCc1ccc(S(=O)(=O)c2ccc(C(F)(F)F)cc2)cc1)c1cc2cnccc2[nH]1`, the remaining at 0.5 h, 1 µM in series [1] was determined as 82%; in series [2], 87%. Also, the IC50 in series [3] came out at 16 nM; in series [4], 26 nM.

As for `O=C(NCc1ccc(S(=O)(=O)c2ccccc2)cc1)c1ccc2cnccc2c1`, the values for the remaining at 0.5 h, 1 µM in series [1] and in series [2] were 31% and 10%, respectively. Besides, the IC50 in series [3] and in series [4] was greater than 10000 nM each time.

On to `O=C(NCc1ccc(S(=O)(=O)N2CCCCC2)cc1)c1ccc2nccn2c1`, for which the remaining at 0.5 h, 1 µM worked out at 57% in series [1] and 0.28% in series [2]. Also, the IC50 in series [3] came out at 28 nM; in series [4] it was 6 nM.

As to `O=C(NCc1ccc(S(=O)(=O)c2cccc(C(F)(F)F)c2)cc1)c1cnc2nccn2c1`, the remaining at 0.5 h, 1 µM in series [1] was found to be 41%; in series [2], 27%. In addition, the IC50 turned out to be 1 nM in series [3] and 2 nM in series [4].

For `O=C(NCc1ccc(S(=O)(=O)N2CCCCC2)cc1)c1ccn2cncc2c1`, the remaining at 0.5 h, 1 µM in series [1] was determined as 54%; in series [2], 1%. Besides, the figures for the IC50 in series [3] and in series [4] were 1700 nM and greater than 10000 nM, respectively.

As to `O=C(NCCc1ccc(S(=O)(=O)c2ccccc2)cc1)c1cc2cnccc2[nH]1`, the figures for the remaining at 0.5 h, 1 µM in series [1] and in series [2] were 64% and 31%, respectively. Besides, the IC50 in series [3] is 970 nM; in series [4], 9100 nM.

With `Cc1ccccc1S(=O)(=O)c1ccc(CNC(=O)c2cc3cnccc3[nH]2)cc1`, the remaining at 0.5 h, 1 µM in series [1] stood at 48%; in series [2] it was 15%. Also, the IC50 is 12 nM in series [3] and 13 nM in series [4].

Regarding `O=C(NCc1ccc(S(=O)(=O)c2ccccc2)cc1)c1cc2ncccc2s1`, the remaining at 0.5 h, 1 µM amounted to 81% in series [1] and 1.6% in series [2]. Also, the IC50 in series [3] was 400 nM; in series [4] it was greater than 10000 nM.

Consider `O=C(NCc1ccc(S(=O)(=O)N2CCCCC2)cc1)c1cc2cnccc2[nH]1`, for which the remaining at 0.5 h, 1 µM in series [1] was 44%; in series [2], 1.9%. In series [4], 10 nM corresponded to half-maximal inhibition (IC50).

As for `O=C(NCc1ccc(S(=O)(=O)c2ccccc2)cc1)c1cc2ccncc2s1`, the remaining at 0.5 h, 1 µM in series [1] was found to be 48%; in series [2] it was 21%. The IC50 worked out at 7 nM in series [3] and 14 nM in series [4].

Take `O=C(NCc1ccc(S(=O)(=O)c2cccc(F)c2)cc1)c1cc2cnccc2[nH]1`: the figures for the remaining at 0.5 h, 1 µM in series [1] and in series [2] were 79% and 44%, respectively. The results for the IC50 in series [3] and in series [4] were 5 nM and 11 nM, respectively.

Take `O=C(Nc1ccc(S(=O)(=O)N2CCCCC2)cc1)c1cc2cnccc2[nH]1`: the IC50 in series [3] and in series [4] was greater than 10000 nM throughout.

On to `O=C(NCc1ccc(S(=O)(=O)c2ccccc2)cc1)c1ccc2cncn2c1`, for which the remaining at 0.5 h, 1 µM in series [1] amounted to 65%; in series [2], 1.7%. The IC50 in series [3] is 1500 nM; in series [4] it was greater than 10000 nM.

As to `O=C(NCc1ccc(S(=O)(=O)c2ccccc2)cc1)c1cnc2nccn2c1`, the remaining at 0.5 h, 1 µM in series [1] came to 60%; in series [2] it was 30%. For the same molecule, in series [4], the IC50 was determined as 68 nM.

Consider `O=C(NCc1ccc(S(=O)(=O)N2CCCCC2)cc1)c1cc2ccncc2s1`, for which the remaining at 0.5 h, 1 µM in series [1] is 4.4%; in series [2], 0.2%. Further, the IC50 in series [3] was found to be 11 nM; in series [4], 6 nM.

`Cc1cccc(S(=O)(=O)c2ccc(CNC(=O)c3cc4cnccc4[nH]3)cc2)c1`: the results for the remaining at 0.5 h, 1 µM in series [1] and in series [2] were 49% and 32%, respectively. For the same molecule, the values for the IC50 in series [3] and in series [4] were 8 nM and 4 nM, respectively.

With `O=C(NCc1ccc(S(=O)(=O)c2ccccc2)cc1)c1nc2cnccc2[nH]1`, the figures for the remaining at 0.5 h, 1 µM in series [1] and in series [2] were 73% and 7.3%, respectively. In series [4], the IC50 worked out at 5400 nM.

Consider `O=C(NCc1ccc(S(=O)(=O)N2CCCCC2)cc1)c1cc2ccncc2o1`, for which the values for the remaining at 0.5 h, 1 µM in series [1] and in series [2] were 56% and 0.14%, respectively. The IC50 in series [4] amounted to 29 nM.

As for `O=C(NCc1ccc(S(=O)(=O)c2ccccc2)cc1)c1ccc2ncncc2c1`, the remaining at 0.5 h, 1 µM in series [1] worked out at 24%; in series [2] it was 3.7%. Also, the IC50 in series [3] was 1900 nM; in series [4] it was greater than 10000 nM.

With `CC(NC(=O)c1cc2cnccc2[nH]1)c1ccc(S(=O)(=O)N2CCCCC2)cc1` (stereo unspecified), the results for the remaining at 0.5 h, 1 µM in series [1] and in series [2] were 34% and 0.65%, respectively. For the same molecule, the IC50 in series [3] and in series [4] was greater than 10000 nM in each case.

In the case of `O=C(NCc1ccc(S(=O)(=O)c2ccccc2)cc1)c1c[nH]c2ccncc12`, the remaining at 0.5 h, 1 µM was greater than 99% in series [1] and 45% in series [2]. The molecule further registered an IC50 in series [4] of 2100 nM.

As to `O=C(NCc1ccc(S(=O)(=O)c2ccc(N3CCOCC3)nc2)cc1)c1cc2ccncc2s1`, the remaining at 0.5 h, 1 µM in series [1] and in series [2] was 23% each time. Moreover, the IC50 in series [3] amounted to 3 nM; in series [4] it was 1 nM.

On to `O=C(NCc1ccc(S(=O)(=O)c2ccccc2)cc1)c1nc2ccncc2s1`, for which the remaining at 0.5 h, 1 µM in series [1] was 68%; in series [2], 26%. In addition, the IC50 in series [3] is 210 nM; in series [4], greater than 10000 nM.

Take `Cn1c(C(=O)NCc2ccc(S(=O)(=O)c3ccccc3)cc2)cc2cnccc21`: the figures for the remaining at 0.5 h, 1 µM in series [1] and in series [2] were 78% and 34%, respectively. For the same molecule, the IC50 in series [4] is greater than 10000 nM.

With `O=C(NCc1ccc(S(=O)(=O)c2ccc(F)c(F)c2)cc1)c1cc2cnccc2[nH]1`, the remaining at 0.5 h, 1 µM in series [1] is 100%; in series [2] it was 58%. The IC50 in series [3] was found to be 10 nM; in series [4], 14 nM.

On to `O=C(NCc1ccc(S(=O)(=O)N2CCCCC2)cc1)c1ccc2nc[nH]c2c1`, for which the values for the remaining at 0.5 h, 1 µM in series [1] and in series [2] were 53% and 16%, respectively. In addition, the figures for the IC50 in series [3] and in series [4] were 310 nM and greater than 10000 nM, respectively.

The record behind these values is ChEMBL document CHEMBL2417368, “Structure-based discovery of novel amide-containing nicotinamide phosphoribosyltransferase (nampt) inhibitors” (J Med Chem, 2013).
